Results on 2 compounds are retold here after patent publication US20130172246A1, “INSULIN GLARGINE VERSUS METFORMIN FOR THE FIRST-LINE TREATMENT OF EARLY TYPE-2 DIABETES” (priority 2011, published 2013).

The subject of the data set is type 2 diabetes patients. The data set is described as follows: Continuous glucose monitoring (CGM) with standardized test meal, clinical trial insulin glargine vs. metformin. Also on record: AUC 2hpp value after a test meal - Visit 1 / AUC 2hpp value after a test meal - Visit 8 / AUC day 2 - visit 8 / AUC day 2 - change / AUC day 3 - visit 8 / AUC day 3 - change / AUC 2 h incremental after TM - visit 8 / AUC 2 h incremental after TM - change / AUC between 5.6 and fasting on day 2 - visit 8 / AUC between 5.6 and fasting on day 2 - change / AUC between 5.6 and fasting on day 3 - visit 8 / AUC between 5.6 and fasting on day 3 - change / AUC 2 h after test meal - visit 8 / AUC 2 h after test meal change: unit not given beside the values. Particulars: for Glycemic load - visit 8: (FG+Peak+2hppG)·⅓; for Glycemic load - visit 8 / MAGE - visit 8 / AUC day 2 - change / AUC day 2 - visit 8 / AUC day 3 - change / AUC day 3 - visit 8 / AUC between 5.6 and fasting on day 2 - change / AUC between 5.6 and fasting on day 3 - change / AUC 2 h after test meal change / AUC 2 h incremental after TM - change / Glycemic load - change / MAGE - change / AUC 2 h after test meal - visit 8 / AUC between 5.6 and fasting on day 2 - visit 8 / AUC between 5.6 and fasting on day 3 - visit 8 / AUC 2 h incremental after TM - visit 8: per protocol; for Glycemic load - visit 8 / MAGE - visit 8 / AUC day 2 - visit 8 / AUC day 3 - visit 8 / AUC 2 h after test meal - visit 8 / AUC between 5.6 and fasting on day 2 - visit 8 / AUC between 5.6 and fasting on day 3 - visit 8 / AUC 2 h incremental after TM - visit 8: week 36; for Glycemic load - visit 8 / AUC 2hpp value after a test meal - Visit 1 / MAGE - visit 8 / AUC 2 h after test meal change / AUC 2 h incremental after TM - change / Glycemic load - change / MAGE - change / AUC 2 h incremental after TM - visit 8 / AUC 2hpp value after a test meal - Visit 8: mean (SD); for fall of the total area under the curve (AUC-IG): CGM, p=0.04; for fall of the total area under the curve (AUC-IG) / decrease in the interstitial glucose level during CGM (Δ): start to end of study; for AUC 2hpp value after a test meal - Visit 1: baseline (week 0) before treatment; for MAGE - visit 8: mean amplitude of glycemic excursions; for AUC day 2 - change / AUC day 2 - visit 8: CGM day 2; for AUC day 2 - change / AUC day 3 - change / AUC between 5.6 and fasting on day 2 - change / AUC between 5.6 and fasting on day 3 - change / AUC 2 h after test meal change / AUC 2 h incremental after TM - change / Glycemic load - change / MAGE - change: change visit 1 to visit 8; for AUC day 2 - change / AUC day 2 - visit 8 / AUC day 3 - change / AUC day 3 - visit 8 / AUC between 5.6 and fasting on day 2 - change / AUC between 5.6 and fasting on day 3 - change / AUC 2 h after test meal - visit 8 / AUC between 5.6 and fasting on day 2 - visit 8 / AUC between 5.6 and fasting on day 3 - visit 8: mean; for AUC day 3 - change / AUC day 3 - visit 8: CGM day 3; for decrease in the interstitial glucose level during CGM (Δ): GLA vs. MET p=0.02; for AUC 2hpp value after a test meal - Visit 8: week 36 of treatment. Type of data set: in vivo, human. Here is the method:
The primary target variable determined was the Area Under the Curve (AUC) in mmol/L/time in subcutaneous abdominal fat after a test meal (TM) in a 2-hour course, which was determined by continuous blood glucose monitoring. The test meal was administered on the 2nd day of the CGM as breakfast. • AUC [mmol/L/time] 2 h pp
CGMS: The system used for continuous glucose monitoring is the CGMS from Medtronic, CGMS® System Gold™ monitor/MiniMed glucose subcutaneous sensor. The system is authorized for continuous glucose monitoring over a period of 72 h. The measurement sensor is inserted into subcutaneous fat tissue with the aid of an applicator. The entire sensor is stuck on the skin using a plaster. This is followed by the calibration of the device for approximately 5 hours, during which the subcutaneous levels are synchronized with the capillary blood glucose levels. Over the course of 72 h, further calibrations are required, as recommended by the manufacturer. The measured data of the sensor are transmitted by means of radio frequency to the CGMS® System Gold™ monitor, which is worn on the belt for example. After completion of the measurement period, the sensor is removed and the data of the monitor are evaluated on the computer using the software. For the evaluation, only the measured data of the first 48 hours are used, since the accuracy of measurement decreases over the course of the third day.
Test meal: On the morning of the 2nd day of the CGM, there is a standardized test meal in the trial center. This test meal (TM) consists of 95 g of whole-wheat bread, 20 g of margarine, 25 g of fruit preserves, 25 g of cheese, 200 ml of orange juice, 200 ml of milk mix with banana, strawberry or cocoa with a total of 560 Kcal. Blood is taken from the patient prior to the TM (after night-time fasting period of at least 8 hours). Subsequently, the TM should be eaten within 15 min. From the 1st bite, the time is measured, and after 2 h have elapsed, a 2nd blood collection is performed. During the TM and during the two hours thereafter, the patient should move as little as possible so as not to falsify the monitoring.
The primary target variable is the AUC (BG) TM of the glucose concentration in subcutaneous abdominal fat after a standardized test meal over a period of 2 hours. The AUC is calculated accordina to the trapezoidal rule.
• Mean HbA1c, • Glycemic variability: • Standard deviation (SD) of the mean glucose concentration over 24 h (day 2), • MAGE—mean amplitude of glycemic excursion calculated as the mean from the glucose increases>1 SD of the mean glucose concentration over the course of 24 h • Glycemic load calculated by (FG+Peak+2hppG)·⅓ • Mean of C-peptide and intact proinsulin (fasting and 2 h pp) • Mean free fatty acids • Biomarkers of subclinical inflammation (hsCRP, PAI-1, leukocyte count fasting and 2 h postprandial) • Microalbuminuria (albumin/creatinine ratio) • Endothelial function at ball of thumb using laser Doppler (O2C) • Hypoglycemic intervals (time<3 mmol glucose) during CGM over 48 hours (day 2+3 after TM)
In the study in the previous examples, 75 patients (45 men, 30 women, mean age: 60.7±9.2 years) were examined, whose first diagnosis of type 2 diabetes dated back to less than 5 years and whose HbA1c level was between 6.5 and 8.5%. The patients were treated with either metformin (MET, 1000 mg b.i.d. (n=3)) or insulin glargine (GLA) q.d. just before bedtime (n=3). The insulin dose was adjusted for a target plasma glucose concentration (FPG) of ≦5.6 mmol/L according to a standardized titration algorithm. At the start and end of the study, the HbA1c level and the plasma glucose, proinsulin and C-peptide concentrations were determined. […] All the patients received a standardized test meal on the second day of the continuous glucose monitoring for comparison of the interindividual postprandial (pp) glucose excursions.

Take `CN(C)C(=N)N=C(N)N` [Metformin]: the “Glycemic load - visit 8” value is on record as 8.5 (2.1), the “fall of the total area under the curve (AUC-IG)” value was found to be 416.1 ± 537.6 mmol·min/L, the “AUC 2hpp value after a test meal - Visit 1” value was 256.50 (72.837) and the “MAGE - visit 8” value is listed as 6.3 (2.4). Also, the “AUC day 2 - change” value is on record as −416.1, the “AUC day 2 - visit 8” value stood at 1978.5, the “AUC day 3 - change” value was −411.5 and the “AUC day 3 - visit 8” value is given as 1972.5. The “AUC between 5.6 and fasting on day 2 - change” value is on record as −356.5; the “AUC between 5.6 and fasting on day 3 - change” value was −317.4; the “AUC 2 h after test meal change” value was −42.9 (73.1); the “AUC 2 h incremental after TM - change” value was −5.8 (31.8). In addition, the “Glycemic load - change” value is listed as −1.7 (2.7); the MAGE - change is given as −0.8 (3.3); the “AUC 2 h after test meal - visit 8” value came out at 213.6; the “AUC between 5.6 and fasting on day 2 - visit 8” value was −15.4. Moreover, the “AUC between 5.6 and fasting on day 3 - visit 8” value was 41.1; the “AUC 2 h incremental after TM - visit 8” value is given as 49.6 (25.0); the “decrease in the interstitial glucose level during CGM (Δ)” value was found to be 1.4 ± 1.8 mmol/L; the “AUC 2hpp value after a test meal - Visit 8” value is 213.61 (52.844).
In the case of Insulin glargine, the “Glycemic load - visit 8” value was 8.8 (1.6), the “fall of the total area under the curve (AUC-IG)” value amounted to 671.2 ± 507.9 mmol·min/L, the “AUC 2hpp value after a test meal - Visit 1” value was 287.38 (67.235) and the “MAGE - visit 8” value is reported as 8.0 (2.3). For the same compound, the “AUC day 2 - change” value is −671.2, the “AUC day 2 - visit 8” value is recorded as 2000.3, the “AUC day 3 - change” value is −628.2 and the “AUC day 3 - visit 8” value worked out at 2045.0. The “AUC between 5.6 and fasting on day 2 - change” value is recorded as −565.4; the “AUC between 5.6 and fasting on day 3 - change” value is −571.5; the “AUC 2 h after test meal change” value is −63.0 (5.4); the “AUC 2 h incremental after TM - change” value is on record as −5.7 (40.4). Besides, the “Glycemic load - change” value was −2.7 (1.9); the MAGE - change is −0.4 (3.4); the “AUC 2 h after test meal - visit 8” value came to 224.4; the “AUC between 5.6 and fasting on day 2 - visit 8” value is −58.5. Moreover, the “AUC between 5.6 and fasting on day 3 - visit 8” value is listed as −11.6; the “AUC 2 h incremental after TM - visit 8” value is given as 68.3 (24.6); the “decrease in the interstitial glucose level during CGM (Δ)” value amounted to 2.4 ± 1.8 mmol/L; the “AUC 2hpp value after a test meal - Visit 8” value was 224.38 (40.048). The “postprandial plasma glucose two hours after a test meal and differences in AUC-IG after the test meal” value (GLA vs. MET) was “showed no significance”.
